Here are results for 1 molecule from article PMC9011347, “Small-Molecule Inhibitors Targeting Lipolysis in Human Adipocytes” (Journal of the American Chemical Society, 2022).

This series relates to HepG2 cells. The series is described as follows: LDH-based cytotoxicity assay. It is filed as cell-based, human. To be noted: 24 h, up to a concentration of 100 μM. The method, then:
Figure 2 Development and characterization of the human ATGL inhibitor NG-497. (a) Structure and IC50 values of human ATGL inhibitors. (b) Dose-dependent inhibition of human ATGL by respective inhibitors. (c) ATGL activity was determined at the indicated substrate concentrations in the absence and presence of NG-497 (0.5 μM). Ki was determined by nonlinear regression analysis using GraphPad Prism. Lineweaver–Burk analysis of ATGL inhibition is shown in the inset. (d) Toxicity of NG-497 in HepG2 cells was determined after 24 h incubation at indicated concentrations. Cisplatin and DMSO were used as positive and negative controls, respectively. Cytotoxicity was determined using the Roche LDH Kit and calculated as relative LDH release compared to fully lysed cells. (e) Stability of NG-497 was analyzed via ultrahigh-performance liquid chromatography–mass spectrometry (UHPLC-MS) after incubation in human serum for 0 or 3 h at 37 °C. Atglistatin and a chemically related unstable compound were used as controls. […] NG-497 concentrations/well were determined at the indicated time points using UHPLC-MS. […] Statistical significance was determined via t test (*p < 0.05; **p < 0.01; ***p < 0.001) or ANOVA followed by Bonferroni post hoc test (^###p < 0.001). […] The detected 297 lipid species of both groups were analyzed with supervised multivariate analysis OPLS-DA and are shown as a loading plot. […]

On to `CCOc1ccc(-c2cc(OC)cc(C(=O)OC(C)C)n2)cc1` [NG-497], for which the “cytotoxicity (relative LDH release)” value is listed as “no toxic effects”.
